Test results published in patent US9163032B2, “Esters of DCPLA and methods of treatment using the same” (Blanchette Rockefeller Neurosciences Institute, priority 2011, dated 2015).

Legend:
synaptophysin = test: Synaptophysin expression in primary hippocampal neurons (immunofluorescence, Western Blot); assay type: cell-based, rat
Description: (§1) Cells were grown in two chambered slides (Nunc, USA) at low density. For immunofluorescence staining, the cells were washed with PBS (pH 7.4) and fixed with 4% paraformaldehyde for 4 min. Following fixation, the cells were blocked and permeabilized with 5% serum and 0.3% Triton X-100 in 1×PBS for 30 min. Cells were washed three times with 1×PBS and incubated with primary antibodies for 1 hr at 1:100 dilution. After the incubation, the slides were again washed three times in 1×PBS and were incubated with the FITC anti-mouse IgG and Rhodamine anti-rabbit IgG for 1 hr at 1:400 dilution. The cells were further washed and stained with DAPI (4′,6-diamidino-2′-phenylindole, dihydrochloride) (Thermo Scientific, USA) to stain the nucleus. Finally, the slides were washed and mounted in Pro Long Gold antifade mounting solution (Invitrogen, USA) and were viewed under a LSM 710 Meta confocal microscope (Zeiss) at 350 nm, 490 nm, and 540 nm excitation and 470 nm, 525 nm, and 625 nm emission for DAPI, FITC, and Rhodamine respectively. Six individual fields at 63× oil lens magnification were analyzed for the mean fluorescence intensity (MFI) in each channel.
(§2) Cells were harvested in homogenizing buffer containing 10 mM Tris-Cl (pH 7.4), 1 mM PMSF (phenylmethylsulfonyl fluoride), 1 mM EGTA, 1 mM EDTA, 50 mM NaF, and 20 μM leupeptin, and were lysed by sonication. The homogenate was centrifuged at 100,000×g for 15 min at 4° C. to obtain the cytosolic fraction (supernatant) and membrane (pellet). The pellet was resuspended in the homogenizing buffer by sonication. For whole cell protein isolation from primary neurons, the homogenizing buffer contained 1% Triton X-100. Protein concentration was measured using the Coomassie Plus (Bradford) Protein Assay kit (Pierce, USA). Following quantification, 20 μg of protein from each sample was subjected to SDS-PAGE analysis in a 4-20% gradient Tris-Glycine gel (Invitrogen, USA). The separated protein was then transferred to a nitrocellulose membrane. The membrane was blocked with 5% BSA at room temperature for 15 min and was incubated with primary antibody overnight at 4° C. After the incubation, it was washed three times with TBS-T (Tris Buffered Saline-Tween 20) and further incubated with alkaline phosphatase conjugated secondary antibody (Jackson Immunoresearch Laboratories, USA) at 1:10000 dilution for 45 min. The membrane was finally washed three times with TBS-T and developed using the 1-step NBT-BCIP substrate (Pierce, USA). The blot was imaged in an ImageQuant RT-ECL (GE Life Sciences, Piscataway, N.J.) and densitometric quantification was performed using IMAL software (Blanchette Rockefeller Neurosciences Institute, Morgantown, W. Va.). For translocation assays, PKC activation was represented as the percentage of total protein in the membrane (membrane/cytosol+membrane).
To estimate the synaptic damage caused by the ASPDs on primary hippocampal neurons, the expression of synaptophysin (a presynaptic marker) and PSD-95 (a postsynaptic marker) was measured by immunofluorescence staining. […] Following a 20 hr incubation period, the cells were stained for nucleus, PSD-95, and synaptophysin. Expression levels were calculated as the change of percentage in mean fluorescence intensity compared to untreated cells.
Primary neurons, treated and untreated, were immunostained for MAP-2, synaptophysin, and PSD-95 to determine the synaptic integrity. […] Following a 20 hr incubation period, the cells were stained for MAP-2, PSD-95, and synaptophysin as described above.

PKC-ε [1] = test: PKC-ε translocation to membrane in SH-SY5Y neuroblastoma cells (Western Blot); assay type: cell-based, human
Description: as §2

MAP-2 = MAP-2 expression in primary hippocampal neurons (immunofluorescence); assay type: cell-based, rat; details: 20 hr
Description: as §1
Primary neurons, treated and untreated, were immunostained for MAP-2, synaptophysin, and PSD-95 to determine the synaptic integrity. […]

GSK-3β = test: Phospho GSK-3β (Ser-9) Western Blot in ASPD treated primary neurons; assay type: cell-based, rat
Description: Phospho GSK-3β expression was normalized against total GSK-3β expression. […] Data are represented as mean±SEM. (Student's t test *.p<0.05; and **, p<0.005 n=3).
as §2, with “After the incubation, it was washed three times with TBS-T (Tris Buffered Saline-Tween 20) and further incubated with alkaline phosphatase conjugated secondary antibody (Jackson Immunoresearch Laboratories, USA) at 1:10000 dilution for 45 min. The membrane was finally washed three times with TBS-T and developed using the 1-step NBT-BCIP substrate (Pierce, USA).” left out, “For translocation assays, PKC activation was represented as the percentage of total protein in the membrane (membrane/cytosol+membrane).” left out

[2] = tested on: cultured primary rat hippocampal neurons; test: Neuroprotection against ASPD induced toxicity, MTT assay, primary neurons; assay type: cell-based
Description: Viability of cells was measured by MTT assay. MTT (i.e., 3-(4,5-dimethylthiazol-2-yl)-2,5-diphenyltetrazolium bromide) is a tetrazolium salt that is cleaved to formazan by the succinate dehydrogenase, which is only active in viable cells. After solubilization of the formazan, the amount of dye can be quantified with a microplate reader at 570 nm along with a reference of 630 nm. For the MTT assay, 5×10^4 primary rat hippocampal neurons from 18-day-old embryonic Sprague-Dawley rat brains or SH-SY5Y cells were plated on each well of 24-well plates coated with poly-D-lysine. After treatment, the cells were washed with 1× PBS and were incubated with 200 μl of 1 mg/ml MTT solution (Sigma, USA) at 37° C. for 2 hr. Then the MTT-solution was removed and the cells were lysed with 200 μl isopropanol containing 0.04 M HCl and […] for 10 min. Finally, the reading was taken at 570 nm and 630 nm. All the samples were done in triplicate and the data were represented as the percentage of control.
Bryostatin 1, DCPLA, and DCPLA-ME were tested against ASPD-induced cytotoxicity to determine their neuroprotective efficacy.

PKC-ε [3] = test: PKC-ε level in primary neurons (immunofluorescence, Western Blot); assay type: cell-based, rat
Description: as §1
Cells were harvested in homogenizing buffer containing 10 mM Tris-Cl (pH 7.4), 1 mM PMSF (phenylmethylsulfonyl fluoride), 1 mM EGTA, 1 mM EDTA, 50 mM NaF, and 20 μM leupeptin, and were lysed by sonication. The homogenate was centrifuged at 100,000×g for 15 min at 4° C. to obtain the cytosolic fraction (supernatant) and membrane (pellet). The pellet was resuspended in the homogenizing buffer by sonication. […] Protein concentration was measured using the Coomassie Plus (Bradford) Protein Assay kit (Pierce, USA). Following quantification, 20 μg of protein from each sample was subjected to SDS-PAGE analysis in a 4-20% gradient Tris-Glycine gel (Invitrogen, USA). […] The blot was imaged in an ImageQuant RT-ECL (GE Life Sciences, Piscataway, N.J.) and densitometric quantification was performed using IMAL software (Blanchette Rockefeller Neurosciences Institute, Morgantown, W. Va.). […]

Row | Compound | synaptophysin mean fluorescence intensity (synaptophysin; 50 nM ASPD + 100 nM DCPLA-ME, 20 hr) | PKC-ε translocation in ASPD-treated cells (PKC-ε [1]; ASPD + DCPLA-ME, FIG. 8D) | MAP-2 mean fluorescence intensity (MAP-2; 50 nM ASPD + 100 nM DCPLA-ME) | phosphorylation of the Ser-9 residue of GSK-3β (GSK-3β; ASPD (50 nM) + DCPLA-ME (100 nM)) | more viable than Bryostatin 1-treated cells ([2]; 50 nM ASPD, DCPLA-ME 100 nM vs Bryostatin 1 0.27 nM) [%] | more viable than DCPLA-treated cells ([2]; 50 nM ASPD, DCPLA-ME 100 nM vs DCPLA 10 μM) [%] | PKC-ε protein level (Western Blot) (PKC-ε [3]; ASPD-treated primary neurons, 100 nM DCPLA-ME) | synaptophysin mean fluorescence intensity (synaptophysin; 50 nM ASPD, 20 hr) | synaptophysin mean fluorescence intensity (synaptophysin; 50 nM ASPD, 20 hr, listed as ASPDs) | decrease in synaptophysin intensity (synaptophysin; 50 nM, 20 hr) [%] | decrease of synaptophysin expression (Western Blot) (synaptophysin; ASPD) [%] | synaptophysin expression (Western Blot) (synaptophysin; ASPD, relative to control) [%] | reduction of PKC-ε membrane translocation (PKC-ε [1]; ASPD 50 nM) [%] | PKC-ε membrane translocation (PKC-ε [1]; ASPD 50 nM, relative to control) [%] | MAP-2 mean fluorescence intensity (MAP-2; 50 nM ASPD) | GSK-3β activation state (GSK-3β; ASPD 50 nM) | viability of primary neurons ([2]; 50 nM ASPD alone, 20 hr) [%] | PKC-ε immunofluorescence level (PKC-ε [3]; ASPD, 20 hr, primary neurons)
1 | CCCCCC1CC1CC1CC1CCCCCCCC(=O)OC (stereo not drawn) [DCPLA-ME, DCPLA methyl ester] | 87.48±3.75 % of control | restored PKC-ε translocation to normal | 68.87±2.0 % of control | restored phosphorylation of the Ser-9 residue of GSK-3β to normal levels | 16 | 8 | restored the PKC-ε protein level to normal | – | – | – | – | – | – | – | – | – | – | –
2 | ASPD: Amylospheroids from Aβ1-42, 100 kDa filter retentate, containing 39 monomers on average | – | – | – | – | – | – | – | 63.3±3.8 % of control | 62.45±6.74 % of control | 40 | 26 | 73.30 | 46 | 69.98±3.27 | 40.7±6.2 % of control | activated GSK-3β | 57.6±1.6 | 60.81±5.85 % compared to control
